Measurements taken from patent US20140155415A1, “BENZ[…] BENZODIOXINE COMPOUNDS THAT INTERACT WITH G[…] FOR THE TREATMENT OF DIABETES” (priority 2011, published 2014).

Each compound was assayed against T1, GK-GKRP (interaction between glucokinase and glucokinase regulatory protein) (Homo sapiens, UniProt Q14397) (assay: GK-GKRP Binding Assay (Binding), AlphaScreen). Conditions: not given.
T1 construct: made in house; host or cells: GKRP: baculovirus system
T1 sequence (Q14397 1-625): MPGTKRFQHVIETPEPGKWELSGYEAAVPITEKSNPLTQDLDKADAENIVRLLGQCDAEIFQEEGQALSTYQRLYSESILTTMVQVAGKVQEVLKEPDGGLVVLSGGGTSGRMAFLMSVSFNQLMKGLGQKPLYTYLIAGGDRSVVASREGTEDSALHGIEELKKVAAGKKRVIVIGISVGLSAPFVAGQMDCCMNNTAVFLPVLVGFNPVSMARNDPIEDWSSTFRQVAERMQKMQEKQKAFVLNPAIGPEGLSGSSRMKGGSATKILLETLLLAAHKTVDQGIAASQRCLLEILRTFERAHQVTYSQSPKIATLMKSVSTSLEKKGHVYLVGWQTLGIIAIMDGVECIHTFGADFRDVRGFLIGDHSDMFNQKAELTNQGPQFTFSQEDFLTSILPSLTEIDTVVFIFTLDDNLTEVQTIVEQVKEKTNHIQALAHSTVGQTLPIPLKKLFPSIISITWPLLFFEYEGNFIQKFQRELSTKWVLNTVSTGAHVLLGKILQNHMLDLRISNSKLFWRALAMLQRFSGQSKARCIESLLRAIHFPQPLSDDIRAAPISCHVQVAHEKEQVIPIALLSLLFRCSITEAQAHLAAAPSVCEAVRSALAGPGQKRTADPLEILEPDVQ
Description: GK-GKRP Binding Assay Protocol (Binding)
This assay is used to directly measure the interaction between glucokinase (GK) and glucokinase regulatory protein (GKRP). Begin by preparing the following solutions. Assay Buffer: 20 mM Tris, pH 7.5/0.05% BSA/1 mM DTT/1 μM sorbitol-6-phosphate. […] Combine the following reagents in a white 96-well half area plate. Pipette 14 μl of the diluted avi-tagged GKRP into each well. Add 1 μl of compound to be tested and incubate at room temperature for 20 minutes. After 20 minutes, add 5 μl of assay buffer containing 6 nM GK-fluorescein. […] Incubate in a dark room for 2 hours at room temperature. After 2 hours read the plate using an Envision plate reader (Perkin Elmer, Waltham Mass.).
Recombinant human glucokinase (hepatic) was purified and formulated in 50 mM Tris (pH 7.5), 150 mM NaCl and 20 mM glucose previous to labeling with fluorescein. […] Unreacted dye was removed by extensive dialysis into the final formulation buffer: 25 mM Tris (pH 7.2), 150 mM NaCl, 10% glycerol and 2 mM DTT. The human glucokinase regulatory protein construct was designed with a C-terminal avitag and was expressed in a baculovirus system. Purified GKRP was incubated overnight with recombinant biotin ligase in the presence of D-biotin, ATP and MgCl2. GKRP was isolated from reaction components by chromatography on a Superdex 200 size exclusion column into: 50 mM HEPES, 150 mM NaCl and 5 mM DTT. […] Proteins were quantitated according to their calculated molar extinction coefficients at A280 and were stored at −80° C.
(§1) In the Examples, the assays are referred to as “LCMS/MS” or “Binding.”

Question: Which IC50 does the source give for `COc1ccc(S(=O)(=O)NC(c2cc3ccccc3s2)c2ccccc2SC)cc1OC` (racemic) [Example 74] here?
Answer: Its IC50 is 2700 nM.

Question: Which IC50 does the source give for `O=S(=O)(N[C@@H](c1cc2ccccc2s1)c1ccccc1Cl)c1ccc2c(c1)OCC(O)CO2` (mixture of isomers) [Example 77, N—((R)-1-Benzothiophen-2-yl(2-chlorophenyl)methyl)-3-hydroxy-3,4-dihydro-2H-1,5-benzodioxepine-7-sulfonamide] here?
Answer: The IC50 was 97 nM.

Same assay, conditions: avi-tagged GKRP, GK-fluorescein, AlphaScreen beads, 1 μM sorbitol-6-phosphate; read-out: GK-GKRP IC50 (Binding)

Question: For `COc1cccnc1C(NS(=O)(=O)c1ccc2c(c1)OCCCO2)c1nc2cccnc2s1` (racemic) [Example 69, N-((3-methoxy-2-pyridinyl)([1,3]thiazolo[5,4-b]pyridin-2-yl)methyl)-3,4-dihydro-2H-1,5-benzodioxepine-7-sulfonamide], which IC50 is on record?
Answer: Its IC50 is 1500 nM.

Question: With `O=S(=O)(N[C@@H](c1cc2ccccc2s1)c1ccccc1Cl)c1ccc2c(c1)OCC(F)CO2` (mixture of isomers) [Example 78, N—((R)-1-Benzothiophen-2-yl(2-chlorophenyl)methyl)-3-fluoro-3,4-dihydro-2H-1,5-benzodioxepine-7-sulfonamide] as the compound, how does the IC50 read?
Answer: The IC50 was 47 nM.

Question: With `Nc1cccc(C(NS(=O)(=O)c2ccc3c(c2)OCCCO3)c2cc3ccccc3o2)n1` (racemic) [Example 79, N-((6-amino-2-pyridinyl)(1-benzofuran-2-yl)methyl)-3,4-dihydro-2H-1,5-benzodioxepine-7-sulfonamide] as the compound, how does the IC50 read?
Answer: The IC50 was 98 nM.

Question: Which IC50 does the source give for `O=S(=O)(NC(c1ccccc1)c1cc2ccnc(Cl)c2s1)c1ccc2c(c1)OCCCO2` (racemic) [Example 80, N-((7-Chlorothieno[2,3-c]pyridin-2-yl)(phenyl)methyl)-3,4-dihydro-2H-1,5-benzodioxepine-7-sulfonamide] here?
Answer: Its IC50 is 1100 nM.

Question: Which IC50 does the source give for `Cc1cccnc1[C@H](NS(=O)(=O)c1ccc2c(c1)OCCCO2)c1cc2ccccc2o1` (single isomer, unassigned) [Example 26 Peak #1] here?
Answer: Its IC50 is > 33000 nM.

Question: For `CSc1ccccc1[C@H](NS(=O)(=O)c1ccc2c(c1)OCCCO2)c1nc2cccnc2s1` (single isomer, unassigned) [Example 65 Peak #1], which IC50 is on record?
Answer: Its IC50 is 900 nM.

Question: How did the IC50 turn out when `COc1ccccc1[C@H](NS(=O)(=O)c1ccc2c(c1)OCCCO2)c1nc2cccnc2s1` (single isomer, unassigned) [Example 67 Peak #1] was run?
Answer: Its IC50 is 2800 nM.

Question: How did the IC50 turn out when `O=S(=O)(N[C@H](c1nc2cccnc2s1)c1ccccc1Cl)c1ccc2c(c1)OCCCO2` (single isomer, unassigned) [Example 68 Peak #1] was run?
Answer: The IC50 was 2000 nM.

Question: How did the IC50 turn out when `O=S(=O)(N[C@@H](c1ccccc1)c1cc2cccc(-c3ccccn3)c2s1)c1ccc2c(c1)OCCCO2` (single isomer, unassigned) [Example 71 Peak #1] was run?
Answer: The IC50 was 790 nM.

Question: How did the IC50 turn out when `O=S(=O)(N[C@@H](c1cc2ccccc2s1)c1ccccc1Cl)c1ccc2c(c1)OCC(F)(F)CO2` [Example 76, N—((R)-1-Benzothiophen-2-yl(2-chlorophenyl)methyl)-3,3-difluoro-3,4-dihydro-2H-1,5-benzodioxepine-7-sulfonamide] was run?
Answer: The IC50 was 620 nM.

Question: For `O=S(=O)(N[C@@H](c1cc2cccc(-c3cc(C(O)(C(F)(F)F)C(F)(F)F)ccn3)c2s1)c1ccccc1Cl)c1ccc2c(c1)OCCCO2` [Example 81, N—((R)-(2-Chlorophenyl)(7-(4-(2,2,2-trifluoro-1-hydroxy-1-(trifluoromethyl)ethyl)-2-pyridinyl)-1-benzothiophen-2-yl)methyl)-3,4-dihydro-2H-1,5-benzodioxepine-7-sulfonamide], which IC50 is on record?
Answer: The IC50 was 87 nM.

Question: How did the IC50 turn out when `COc1ccc(S(=O)(=O)N[C@@H](c2cc3cccc(-c4cc(C(O)(C(F)(F)F)C(F)(F)F)ccn4)c3s2)c2ccccc2Cl)cc1OC` [Example 82, N—((R)-(2-Chlorophenyl)(7-(4-(2,2,2-trifluoro-1-hydroxy-1-(trifluoromethyl)ethyl)-2-pyridinyl)-1-benzothiophen-2-yl)methyl)-3,4-dimethoxybenzenesulfonamide] was run?
Answer: The IC50 was 907 nM.

Question: For `C[C@@](O)(c1ccnc(-c2cccc3cc([C@H](NS(=O)(=O)c4ccc5c(c4)OCCCO5)c4ccccc4Cl)sc23)c1)C(F)(F)F` [Example 83, N—((R)-(2-Chlorophenyl)(7-(4-((1R)-2,2,2-trifluoro-1-hydroxy-1-methylethyl)-2-pyridinyl)-1-benzothiophen-2-yl)methyl)-3,4-dihydro-2H-1,5-benzodioxepine-7-sulfonamide], which IC50 is on record?
Answer: The IC50 was 38 nM.

Question: For `COc1ccc(S(=O)(=O)N[C@@H](c2cc3cccc(-c4cc([C@@](C)(O)C(F)(F)F)ccn4)c3s2)c2ccccc2Cl)cc1OC` [Example 84, N—((R)-(2-Chlorophenyl)(7-(4-((1R)-2,2,2-trifluoro-1-hydroxy-1-methylethyl)-2-pyridinyl)-1-benzothiophen-2-yl)methyl)-3,4-dimethoxybenzenesulfonamide], which IC50 is on record?
Answer: The IC50 was 276 nM.

Question: For `C[C@](O)(c1ccnc(-c2cccc3cc([C@H](NS(=O)(=O)c4ccc5c(c4)OCCCO5)c4ccccc4Cl)sc23)c1)C(F)(F)F` [Example 85, N—((R)-(2-Chlorophenyl)(7-(4-((1S)-2,2,2-trifluoro-1-hydroxy-1-methylethyl)-2-pyridinyl)-1-benzothiophen-2-yl)methyl)-3,4-dihydro-2H-1,5-benzodioxepine-7-sulfonamide], which IC50 is on record?
Answer: The IC50 was 23 nM.

Question: `COc1ccc(S(=O)(=O)N[C@@H](c2cc3cccc(-c4cc([C@](C)(O)C(F)(F)F)ccn4)c3s2)c2ccccc2Cl)cc1OC` [Example 86, N—((R)-(2-Chlorophenyl)(7-(4-((1S)-2,2,2-trifluoro-1-hydroxy-1-methylethyl)-2-pyridinyl)-1-benzothiophen-2-yl)methyl)-3,4-dimethoxybenzenesulfonamide] was tested. Which IC50 did it give?
Answer: The IC50 was 72 nM.

Question: With `Nc1cc(C(NS(=O)(=O)c2ccc3c(c2)OCCCO3)c2cc3ccccc3o2)ccn1` (stereo not drawn) [Example 87, N-((2-Amino-4-pyridinyl)(1-benzofuran-2-yl)methyl)-3,4-dihydro-2H-1,5-benzodioxepine-7-sulfonamide] as the compound, how does the IC50 read?
Answer: Its IC50 is 4880 nM.

The compounds below were run against T2, GK-GKRP (glucokinase / glucokinase regulatory protein) (Homo sapiens, UniProt Q14397) (assay: GKRP LC MS/MS Biochemical Assay (LCMS/MS)). Conditions: formation of 13C-glucose-6-phosphate from 13C-glucose by LC MS/MS, human His-hepatic GK, fructose-6-phosphate.
T2 sequence (Q14397 1-625): T1 sequence (Q14397 1-625)
Description: GKRP LC MS/MS Biochemical Assay (LCMS/MS)
This assay is used to directly measure the formation of ^13C-glucose-6-phosphate from ^13C-glucose by LC MS/MS. Begin by preparing the following solutions: Compound Buffer (CB): 50 mM Tris, pH 7.5/4 mM MgCl2/6% DMSO/fresh 10 mM DTT from 1M frozen stock. Enzyme Buffer (EB): 50 mM Tris, pH 7.5/4 mM MgCl2/6% DMSO/fresh 0.1% BSA/fresh 0.01% Brij-35 (10% BSA and 1% Brij-35 stock). GK (Glucokinase) Working Stock (5×): Dilute human His-hepatic GK to 30 nM in EB buffer. […] Seal the plate and incubate for 30 minutes at room temperature while mixing. After 30 minutes add 10 μl of GK Working Stock (5×). Re-seal the plate and incubate for another 30 minutes at room temperature while mixing. After the second 30 minutes, stop the reaction by the addition of 50 μl of 100% acetonitrile, seal, and mix for 5-10 minutes. Run 10 μl of this sample through the LC MS/MS (API 3200, Applied Biosystems, Carlsbad, Calif.). […]
as §1

Question: With `Cc1ccccc1C(NS(=O)(=O)c1ccc2c(c1)OCCCO2)c1cc2ccccc2o1` (racemic) [Example 2, N-(1-benzofuran-2-yl(2-methylphenyl)methyl)-3,4-dihydro-2H-1,5-benzodioxepine-7-sulfonamide] as the compound, how does the EC50 read?
Answer: The EC50 was 110 nM.

Question: With `O=S(=O)(NC(c1cc2ccccc2o1)c1ccccc1CCO)c1ccc2c(c1)OCCCO2` (racemic) [Example 16, N-(1-benzofuran-2-yl(2-(2-hydroxyethyl)phenyl)methyl)-3,4-dihydro-2H-1,5-benzodioxepine-7-sulfonamide] as the compound, how does the EC50 read?
Answer: Its EC50 is 3200 nM.

Question: For `O=S(=O)(NC(c1cccc(F)c1)c1cc2ccccc2o1)c1ccc2c(c1)OCCCO2` (racemic) [Example 24, N-(1-benzofuran-2-yl(3-fluorophenyl)methyl)-3,4-dihydro-2H-1,5-benzodioxepine-7-sulfonamide], which EC50 is on record?
Answer: Its EC50 is 1800 nM.

Question: How did the EC50 turn out when `O=S(=O)(NC(c1cc2ccccc2o1)c1cccnc1Cl)c1ccc2c(c1)OCCCO2` (racemic) [Example 27, N-(1-benzofuran-2-yl(2-chloro-3-pyridinyl)methyl)-3,4-dihydro-2H-1,5-benzodioxepine-7-sulfonamide] was run?
Answer: The EC50 was 1200 nM.

Question: For `O=S(=O)(NC(c1cc2ccccc2o1)c1ccncc1Cl)c1ccc2c(c1)OCCCO2` (racemic) [Example 28, N-(1-benzofuran-2-yl(3-chloro-4-pyridinyl)methyl)-3,4-dihydro-2H-1,5-benzodioxepine-7-sulfonamide], which EC50 is on record?
Answer: The EC50 was 1600 nM.
